In ChEMBL document CHEMBL5325392, “Development of 3α,7α-dihydroxy-6α-ethyl-24-nor-5β-cholan-23-sulfate sodium salt (INT-767): Process optimization, synthesis and characterization of metabolites” (Eur J Med Chem, 2022):
pEC50: −log10 of the molar value.

Tests used:
[1] = target: T1, G-protein coupled bile acid receptor 1 (Homo sapiens, UniProt Q8TDU6); test: Agonist activity at TGR5 receptor in human NCI-H716 cells assessed as activation of intracellular cAMP production incubated for 1 hr by HTR-FRET assay; assay type: functional, cell-based
T1 sequence (Q8TDU6 whole entry): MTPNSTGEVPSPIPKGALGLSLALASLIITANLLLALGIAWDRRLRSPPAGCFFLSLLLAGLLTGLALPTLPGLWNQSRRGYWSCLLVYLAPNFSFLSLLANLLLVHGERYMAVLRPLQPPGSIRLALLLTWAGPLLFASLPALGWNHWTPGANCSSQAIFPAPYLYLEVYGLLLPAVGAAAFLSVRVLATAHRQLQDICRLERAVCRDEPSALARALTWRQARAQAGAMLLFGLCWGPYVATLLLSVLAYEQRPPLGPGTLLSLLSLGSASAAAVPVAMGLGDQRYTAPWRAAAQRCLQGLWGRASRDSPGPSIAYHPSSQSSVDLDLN

[2] = target: T2, Bile acid receptor (Homo sapiens) (UniProt Q96RI1); test: Agonist activity at glutathione transferase-tagged human FXR ligand binding domain assessed as biotinylated Src1 peptide recruitment incubated for 30 mins by AlphaScreen assay relative to CDCA; conditions: filed as agonist
T2 sequence (whole entry): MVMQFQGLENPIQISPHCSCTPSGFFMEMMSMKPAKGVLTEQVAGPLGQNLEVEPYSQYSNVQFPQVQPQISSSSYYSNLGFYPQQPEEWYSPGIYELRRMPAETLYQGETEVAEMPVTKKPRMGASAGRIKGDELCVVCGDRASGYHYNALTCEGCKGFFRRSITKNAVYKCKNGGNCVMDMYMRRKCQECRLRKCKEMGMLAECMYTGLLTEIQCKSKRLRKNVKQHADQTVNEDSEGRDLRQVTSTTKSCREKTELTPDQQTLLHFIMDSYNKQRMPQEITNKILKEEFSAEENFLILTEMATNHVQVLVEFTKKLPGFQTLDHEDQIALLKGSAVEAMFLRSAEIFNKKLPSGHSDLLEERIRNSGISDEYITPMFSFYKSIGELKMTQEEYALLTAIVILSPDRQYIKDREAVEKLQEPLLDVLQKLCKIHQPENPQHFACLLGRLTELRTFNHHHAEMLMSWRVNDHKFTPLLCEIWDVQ

[3] = target: T3, Bile acid receptor (Homo sapiens, UniProt Q96RI1); test: Agonist activity at glutathione transferase-tagged human FXR ligand binding domain assessed as biotinylated Src1 peptide recruitment incubated for 30 mins by AlphaScreen assay
T3 sequence (Q96RI1 whole entry): T2 sequence (whole entry)

CC[C@H]1[C@@H](O)[C@@H]2[C@H](CC[C@]3(C)[C@@H]([C@H](C)CCOS(=O)(=O)O)CC[C@@H]23)[C@@]2(C)CCC(=O)C[C@@H]12
pEC50 [1]: 5.30
Efficacy [2]: 162%
pEC50 [3]: 7.10

CC[C@H]1[C@@H](O)[C@@H]2[C@H](CC[C@]3(C)[C@@H]([C@H](C)CCO)CC[C@@H]23)[C@@]2(C)CC[C@@H](O)C[C@@H]12
pEC50 [1]: 5.96
Efficacy [2]: 165%
pEC50 [3]: 5.92

CC[C@H]1[C@@H](O)[C@@H]2[C@H](CC[C@]3(C)[C@@H]([C@H](C)CCOS(=O)(=O)O)CC[C@@H]23)[C@@]2(C)CC[C@@H](O[C@@H]3O[C@H](CC(=O)O)[C@@H](O)[C@H](O)[C@H]3O)C[C@@H]12
pEC50 [1]: < 4.00
Efficacy [2]: 115%
pEC50 [3]: 5.30

CC[C@H]1[C@@H](O)[C@@H]2[C@H](CC[C@]3(C)[C@@H]([C@H](C)CCOS(=O)(=O)O)CC[C@@H]23)[C@@]2(C)CC[C@@H](OS(=O)(=O)O)C[C@@H]12
pEC50 [1]: < 4.00
pEC50 [3]: < 4.00
